Assay results from patent US20240124389A1, “COMPOUND OR SALT THEREOF, LIPID PARTICLES, AND PHARMACEUTICAL COMPOSITION” (FUJIFILM Corporation, priority 2021, published 2024).

What was measured:
PTEN ASO = assay: Encapsulation rate of PTEN ASO in lipid particles; format: physicochemical; conditions: aminolipid 50 / DSPC 20 / cholesterol 28.5 / monostearyl PEG 1.5 mol %, lipid/nucleic acid 11.8 wt/wt
Description: The first lipid, phospholipid, cholesterol, and polyethylene glycol lipid (PEG lipid) shown in Table 3 were dissolved in ethanol at the molar ratio shown in Table 3 such that the total lipid concentration was 20 mmol/L to obtain the oil phase.
As the neutral lipid, 1,2-Distearoyl-sn-glycero-3-phosphocholine (DSPC, product name: COATSOME MC-8080, NOF corporation) was used. As the cholesterol, cholesterol (product name: Cholesterol HP; Nippon Seika Co., Ltd.) was used. As the PEG lipid, monostearyl PEG (product name: Polyethylene Glycol Monostearate (4E.O.), FUJIFILM Wako Pure Chemical Corporation) was used.
5 mg of PTEN ASO was dissolved in 1 mL of sterile water and diluted with a 10 mmol/L acetate buffer having a pH of 4 such that the nucleic acid concentration was 54.6 μmol/L, to obtain a water phase. Then the water phase and the oil phase were mixed together with a micromixer (see JP5288254B) using a syringe pump such that the volume ratio of water phase:oil phase was 3:1, and the mixed solution was two-fold diluted with a phosphate buffered physiological saline (PBS), thereby obtaining a dispersion of nucleic acid lipid particles.
30 μL of 3 mol/L aqueous sodium acetate solution and 9 μL of glycogen were added to 60 μL of the lipid particles retaining nucleic acids, and then 1.5 mL of ethanol was added thereto, so that only the nucleic acids were precipitated while the lipid was dissolved. Then, the supernatant was removed by centrifugation. The precipitates were air-dried for 15 minutes or longer, then water was added thereto to redissolve the precipitates, and the concentration thereof was measured using Nanodrop ND1000 (Thermo Fisher Scientific), thereby quantifying the total nucleic acid concentration.
The mRNA concentration was quantified using a Quant-iT RiboGreen RNA Assay Kit (Thermo Fisher Scientific) according to the protocol. First, a 20×TE buffer included in the above-described kit was diluted with water, thereby obtaining a 1×TE buffer. TE represents Tris/EDTA (ethylenediaminetetraacetic acid). In order to quantify only the nucleic acid in the outer water phase, the dispersion liquid of lipid particles retaining nucleic acids was 10,000-fold diluted with the 1×TE buffer.
100 μL of the 10,000-fold diluted dispersion liquid of lipid particles was put into a 96-well plate, then 100 μL of a RiboGreen reagent (reagent included in the Quanti-iT Ribogreen RNA Assay Kit described above) 2,000-fold diluted with the 1×TE buffer was added to a sample, and fluorescence (excitation wavelength: 485 nm, fluorescence wavelength: 535 nm) was measured using a plate reader Infinite F200 (TECAN), thereby quantifying the nucleic acid concentration in the outer water phase.
By using the quantification results of the total nucleic acid concentration and the nucleic acid concentration in the outer water phase that were obtained through the above steps, the nucleic acid encapsulation rate of the nucleic acid lipid particles was calculated according to the following Equation.
Nucleic acid encapsulation rate (%)=(total nucleic acid concentration—nucleic acid concentration in outer water phase)/total nucleic acid concentration×100

FLuc mRNA = assay: mRNA encapsulation rate of FLuc mRNA-encapsulating lipid particles; format: physicochemical
Description: The compounds described in Table 2, the neutral lipid, cholesterol (product name: Cholesterol HP; NTPPON FINE CHEMICAL CO., LTD.), and 1,2-dimyristoyl-rac-glycero-3-(methylpolyoxyethylene 2000) (hereinafter, called DMG-PEG2000) were dissolved in ethanol at a molar ratio in Table 2 such that the total lipid concentration became 20 mmol/L, thereby obtaining an oil phase.
As the neutral lipid, 1,2-distearoyl-sn-glycero-3-phosphocholine (product name: COATSOME® MC-8080; NOF corporation) was used in a case of Comparative Example 1, and L-α-dioleoylphosphatidylethanolamine (product name: COATSOME® MC-8181; NOF corporation) was used in a case other than Comparative Example 1.
FLuc mRNA (product name: CleanCap FLuc mRNA (5 moU); TriLink) was diluted with 50 mmol/L citrate buffer having a pH 4 such that the weight ratio of total lipid concentration to mRNA concentration is about 19:1 to 64:1, obtaining a water phase. Then, the water phase and the oil phase were mixed together using NanoAssemblr (Precision NanoSystems) such that the volume ratio of water phase:oil phase was 3:1, and the mixed solution was 1.5-fold diluted with phosphate buffered saline (PBS), thereby obtaining a dispersion liquid of mRNA lipid particles. The dispersion liquid was dialyzed with a 10% aqueous sucrose solution using a dialysis cassette (Slide-A-Lyzer G2, MWCO: 10 kD, Thermo Fisher Scientific) to remove ethanol, thereby obtaining FLuc mRNA-encapsulating lipid particles.
15 to 30 μL of a 3 mol/L aqueous sodium acetate solution and 4.5 to 9 μL of glycogen were added to 30 to 60 μL of the lipid particles retaining mRNA, and 0.75 to 1.5 mL of ethanol was added thereto, so that only the nucleic acids were precipitated while the lipid was dissolved. Then, the supernatant was removed by centrifugation. The precipitates were air-dried for 15 minutes or longer, then water was added thereto to redissolve the precipitates, and the concentration thereof was measured using Nanodrop NF1000 (Thermo Fisher Scientific), thereby quantifying the total mRNA concentration.
The mRNA concentration was quantified using a Quant-iT RiboGreen RNA Assay Kit (Thermo Fisher Scientific) according to the protocol. First, a 20×TE buffer included in the above-described kit was diluted with water, thereby obtaining a 1×TE buffer. TE represents Tris/EDTA (ethylenediaminetetraacetic acid). In order to quantify only mRNA in the outer water phase, the dispersion liquid of lipid particles retaining mRNA was 10,000-fold diluted with the 1×TE buffer. 100 μL of the 10,000-fold diluted dispersion liquid of lipid particles was put into a 96-well plate, then 100 μL of a RiboGreen reagent (reagent included in the Quanti-iT Ribogreen RNA Assay Kit described above) 2,000-fold diluted with the 1×TE buffer was added to a sample, and fluorescence (excitation wavelength: 485 nm, fluorescence wavelength: 535 nm) was measured using a plate reader Infinite F200 (TECAN), thereby quantifying the mRNA concentration in the outer water phase.
By using the quantification results of the total mRNA concentration and the mRNA concentration in the outer water phase that were obtained through the above steps, the mRNA encapsulation rate of the mRNA lipid particles was calculated according to the following Equation.
mRNA encapsulation rate (%)=(total mRNA concentration-mRNA concentration in outer water phase)/total mRNA concentration×100

[1] = aminolipid 45 / DOPE 10 / cholesterol 43.5 / DMG-PEG2000 1.5 mol %, lipid/nucleic acid 32 wt/wt

SMILES | Nucleic acid encapsulation rate (PTEN ASO) [%] | Nucleic acid encapsulation rate (FLuc mRNA; [1]) [%] | Nucleic acid encapsulation rate (FLuc mRNA; aminolipid 40 / DOPE 10 / cholesterol 48.5 / DMG-PEG2000 1.5 mol %, lipid/nucleic acid 64 wt/wt) [%] | Nucleic acid encapsulation rate (FLuc mRNA; aminolipid 50 / DOPE 10 / cholesterol 38.5 / DMG-PEG2000 1.5 mol %, lipid/nucleic acid 64 wt/wt) [%]
CCCCCCC(CCCC)COC(=O)CCCC(CCCCCC)OC(=O)OCCN(CCOC(=O)OC(CCCCCC)CCCC(=O)OCC(CCCC)CCCCCC)CCN(CC)CC (stereo not shown) [Example 8, Bis(2-butyloctyl) 11-(2-(diethylamino)ethyl)-5,17-dihexyl-7,15-dioxo-6,8,14,16-tetraoxa-11-azahenicosanedioate] | 93 |  |  | 
CCCCCCCOC(=O)CCCC(CCCC(=O)OCCCCCCC)OC(=O)OCCN(CCOC(=O)OC(CCCC(=O)OCCCCCC)CCCC(=O)OCCCCCC)CCN(CC)CC [Example 37, 1-Heptyl 21-hexyl 11-(2-(diethylamino)ethyl)-5-(4-(heptyloxy)-4-oxobutyl)-17-(4-(hexyloxy)-4-oxobutyl)-7,15-d ioxo-6,8,14,16-tetraoxa-11-azahenicosanedioate] | 92 |  |  | 
CCCCCC(CCCCC)COC(=O)CCCC(CCC)OC(=O)OCCN(CCOC(=O)OC(CCC)CCCC(=O)OCC(CCCCC)CCCCC)CCN(CC)CC (stereo not shown) [Example 21, Bis(2-pentylheptyl) 11-(2-(diethylamino)ethyl)-7,15-dioxo-5,17-dipropyl-6,8,14,16-tetraoxa-11-azahenicosanedioate] | 96 | 98.4 |  | 
CCCCCCCOC(=O)CCCC(CCCC(=O)OCCCCCCC)OC(=O)OCCN(CCOC(=O)OC(CCCC(=O)OCCCCCCC)CCCC(=O)OCCCCCCC)CCN(CC)CC [Example 29, diheptyl 11-(2-(diethylamino)ethyl)-5,17-bis(4-(heptyloxy)-4-oxobutyl)-7,15-dioxo-6,8,14,16-tetraoxa-11-azahenicosanedioate] | 92 | 95.0 | 100.0 | 100.0
CCCCCCC(CCCC(=O)OCC(CCCCC)CCCCC)OC(=O)OCCN(CCCN(CC)CC)CCOC(=O)OC(CCCCCC)CCCC(=O)OCC(CCCCC)CCCCC (stereo not shown) [Example 13, Bis(2-pentylheptyl) 11-(3-(diethylamino)propyl)-5,17-dihexyl-7,15-dioxo-6,8,14,16-tetraoxa-11-azahenicosanedio ate] | 97 | 99.1 |  | 
